Data set [1] is described as follows: Example 7 pharmacokinetics assay for PKPD study (plasma, tumor, liver). Particulars: mouse, po, 10 mg/kg, p.o., single dose. It counts as in vivo, BALB/c nude mice. The procedure: For the PK and PD study, agents were administered to BALB/c nude mice bearing A375 human melanoma xenografts tumors. Dabrafenib, Compound 141, Compound 118, Compound 156, and Compound 180 were dosed p.o. once on day 1. Known BRAF inhibitor Dabrafenib was used as a positive control. Dabrafenib was dosed at 100 mg/kg. Compound 141, Compound 118, Compound 156, and Compound 180 were dosed at 10 mg/kg.
(§1) The plasma samples were collected at predetermined time points for PK analysis. The mice were euthanized at predetermined time points post the treatment. The blood samples were collected into the 1.5 mL Eppendorf tubes containing 15 μL of 0.5 M EDTA-K2. And then the anticoagulant blood samples were centrifuged at 2,500 g at 4° C. for 15 minutes. The plasma samples were separated into 2 aliquots. The 1st was used for PK analysis, and the 2nd served as backup. The samples were stored at −80° C. before bioanalysis.
The tumor samples were collected at predetermined time points for PK and WB analysis. The tumor was dissected out and split into 3 parts. The 1st part was used for PK analysis, the 2nd part was used for WB analysis and the last one served as backup for study. The samples were transferred into pre-labeled tubes and quickly froze in liquid nitrogen within 2 minutes after dissection. The samples were stored at −80° C. before bioanalysis.
(§2) Liver samples were collected at predetermined time points for PK analysis. The left lobe of the liver was dissected out and split into 2 parts. The 1st part was used for PK analysis and the 2nd part served as the backup for the study. The samples were transferred into pre-labeled tubes and quickly froze in liquid nitrogen within 2 minutes after dissection. The samples were stored at −80° C. before bioanalysis.
The harvested plasma and liver samples were processed for pharmacokinetics analysis by LC-MS/MS with a concentration range of 0.500-1000 ng/mL for Dabrafenib, Compound 118 and Compound 180 in plasma, 0.100~200 ng/ml for Dabrafenib in Liver and tumor homogenate, 50.0~50,000 ng/mL for Compound 141 in plasma and Liver homogenate, 1.00-1000 ng/ml for Compound 141 in tumor homogenate, 2.00~2000 ng/mL for Compound 118 and Compound 180 in Liver and 0.200~200 ng/ml in tumor homogenate, 1.00~2000 ng/mL for Compound 156 in plasma, 0.500-1000 ng/ml in liver and 0.500-1,000 ng/ml in tumor homogenate.

The nature of data set [2]: Example 9 pharmacokinetics assay for efficacy study Part I and II (plasma, liver). It counts as in vivo, BALB/c nude mice. As to conditions: mouse, po, 10 mg/kg, p.o., BID × 14 days, 6 h following treatment, ± SEM. On the procedure: For efficacy study Part I, agents were tested in the A375 human melanoma xenografts. Compound 218 and Compound 157 were administered to BALB/c nude mice bearing A375 xenografts from day 0 and dosed twice a day (BID) for 14 days. Compound 218 and Compound 157 were dosed at 10 mg/kg via p.o.. Dabrafenib was administered from day 1 daily (QD) for 14 days and dosed at 100 mg/kg via p.o..
For efficacy study Part II, agents were tested in the A375 human melanoma xenografts model. Compound 133, Compound 144 and Compound 198 were administered to BALB/c nude mice bearing A375 xenografts from day 0 and dosed twice a day (BID) for 14 days. Compound 133, Compound 144 and Compound 198 were dosed at 10 mg/kg via p.o..
as §1, §2
The harvested plasma and liver samples were processed for pharmacokinetics analysis by LC-MS/MS with a concentration range of 1.00-1,000 ng/mL for Dabrafenib in plasma and liver homogenate, 10.0-10,000 ng/mL for Compound 218, Compound 157, Compound 133, Compound 144 and Compound 198 in plasma and liver homogenate.

[3] abbreviates: liver, read-out: Concentration in Liver (mean ± SEM).
Where [4] appears, read: plasma, read-out: Concentration in Plasma (mean ± SEM).
[5] abbreviates: tumor, read-out: Concentration in Tumor (mean ± SEM).
Where [6] appears, read: liver, read-out: Mean Concentration in Liver.
The mark [7] stands for this setting: plasma, read-out: Mean Concentration in Plasma.

This passage reports concentration results from US20260297060A1, “COMPOUNDS FOR THE DEGRADATION OF MUTANT BRAF” (C4 THERAPEUTICS, INC., priority 2023, published 2026).

Where two headings read alike, the source gives them in different places.

On to `CCN(C)S(=O)(=O)Nc1ccc(F)c(Oc2ccc3ncc(OCC4CCN(C5CCC(c6cc7c(cc6F)c(N6CCC(=O)NC6=O)nn7C)CC5)CC4)nc3c2)c1C#N` (single isomer, unassigned) [Compound 118, 7-[2-cyano-3-[[ethyl(methyl)sulfamoyl]amino]-6-fluoro-phenoxy]-2-[[1-[4-[3-(2,4-dioxohexahydropyrimidin-1-yl)-5-fluoro-1-methyl-indazol-6-yl]cyclohexyl]-4-piperidyl]methoxy]quinoxaline], for which, in data set [1] (setting [3]), the concentration at 6 h turned out to be 103000 ± 9270 ng/g and the concentration at 12 h was 111000 ± 12000 ng/g. In data set [1] (setting [4]), the concentration at 1 h is 1240 ± 90.2 ng/mL, the concentration at 6 h turned out to be 1500 ± 574 ng/mL, the concentration at 12 h came out at 985 ± 234 ng/mL and the concentration at 24 h stood at 595 ± 81.8 ng/mL. Moreover, in data set [1] (setting [5]), the concentration at 1 h was determined as 345 ± 57.4 ng/g, the concentration at 6 h worked out at 855 ± 257 ng/g, the concentration at 12 h was 509 ± 101 ng/g and the concentration at 24 h was 254 ± 7.8 ng/g.
Consider `CCN(C)S(=O)(=O)Nc1ccc(F)c(Oc2ccc3ncc(OC4CC5(CCN(C6CCC(c7cc8c(cc7F)c(N7CCC(=O)NC7=O)nn8C)CC6)CC5)C4)nc3c2)c1C#N` (single isomer, unassigned) [Compound 218, 7-[2-cyano-3-[[ethyl(methyl)sulfamoyl]amino]-6-fluoro-phenoxy]-2-[[7-[4-[3-(2,4-dioxohexahydropyrimidin-1-yl)-5-fluoro-1-methyl-indazol-6-yl]cyclohexyl]-7-azaspiro[3.5]nonan-2-yl]oxy]quinoxaline], for which the concentration at 6 h in data set [2] (setting [6]) was found to be 5640 ± 588 ng/g; in data set [2] (setting [7]), 2270 ± 201 ng/mL.
For `CCN(C)S(=O)(=O)Nc1ccc(F)c(Oc2ccc3ncn(C4CC5(CCN(C6CCN(c7cc8c(cc7F)c(N7CCC(=O)NC7=O)nn8C)CC6)CC5)C4)c(=O)c3c2)c1C#N` [Compound 156, 6-[2-cyano-3-[[ethyl(methyl)sulfamoyl]amino]-6-fluoro-phenoxy]-3-[7-[1-[3-(2,4-dioxohexahydropyrimidin-1-yl)-5-fluoro-1-methyl-indazol-6-yl]-4-piperidyl]-7-azaspiro[3.5]nonan-2-yl]-4-oxo-quinazoline], in data set [1] (setting [3]), the concentration at 6 h was 1460 ± 170 ng/g and the concentration at 12 h is 262 ± 100 ng/g. For the same compound, in data set [1] (setting [4]), the concentration at 1 h came to 4130 ± 545 ng/mL, the concentration at 6 h came out at 805 ± 85.2 ng/mL, the concentration at 12 h was 111 ± 46.3 ng/mL and the concentration at 24 h stood at 1.78 ± 0.554 ng/mL. In addition, in data set [1] (setting [5]), the concentration at 1 h is 758 ± 66.9 ng/g, the concentration at 6 h turned out to be 295 ± 30.3 ng/g, the concentration at 12 h came to 102 ± 35.6 ng/g and the concentration at 24 h stood at 33.5 ng/g.
As to `CCN(C)S(=O)(=O)Nc1ccc(F)c(Oc2ccc3ncn(C4CC5(CCN(C6CC7(C6)CN(c6cc8c(cc6F)c(N6CCC(=O)NC6=O)nn8C)C7)CC5)C4)c(=O)c3c2)c1C#N` (centres unmarked) [Compound 141, 6-[2-cyano-3-[[ethyl(methyl)sulfamoyl]amino]-6-fluoro-phenoxy]-3-[7-[2-[3-(2,4-dioxohexahydropyrimidin-1-yl)-5-fluoro-1-methyl-indazol-6-yl]-2-azaspiro[3.3]heptan-6-yl]-7-azaspiro[3.5]nonan-2-yl]-4-oxo-quinazoline], in data set [1] (setting [3]), the concentration at 6 h was 9730 ± 1380 ng/g and the concentration at 12 h came to 3050 ± 618 ng/g. In data set [1] (setting [4]), the concentration at 1 h worked out at 17700 ± 924 ng/mL, the concentration at 6 h was 10700 ± 1420 ng/mL, the concentration at 12 h was found to be 2530 ± 365 ng/mL and the concentration at 24 h amounted to 219 ± 74.6 ng/mL. Also, in data set [1] (setting [5]), the concentration at 1 h is 2120 ± 109 ng/g, the concentration at 6 h was determined as 2230 ± 114 ng/g, the concentration at 12 h was 818 ± 121 ng/g and the concentration at 24 h was 75.4 ± 24.3 ng/g.
For `CCN(C)S(=O)(=O)Nc1ccc(F)c(Oc2ccc3ncc(C4CC5(CCN(C6CCC(c7cc8c(cc7F)c(N7CCC(=O)NC7=O)nn8C)CC6)CC5)C4)nc3c2)c1C#N` (single isomer, unassigned) [Compound 180, 7-[2-cyano-3-[[ethyl(methyl)sulfamoyl]amino]-6-fluoro-phenoxy]-2-[7-[4-[3-(2,4-dioxohexahydropyrimidin-1-yl)-5-fluoro-1-methyl-indazol-6-yl]cyclohexyl]-7-azaspiro[3.5]nonan-2-yl]quinoxaline], in data set [1] (setting [3]), the concentration at 6 h amounted to 712 ± 282 ng/g and the concentration at 12 h worked out at 247 ± 33.7 ng/g. In data set [1] (setting [4]), the concentration at 1 h worked out at 5110 ± 867 ng/mL, the concentration at 6 h was determined as 260 ± 84.3 ng/mL, the concentration at 12 h was determined as 155 ± 27.8 ng/mL and the concentration at 24 h came to 1.54 ± 0.588 ng/mL. Also, in data set [1] (setting [5]), the concentration at 1 h was determined as 680 ± 72.8 ng/g, the concentration at 6 h was 245 ± 34.7 ng/g, the concentration at 12 h stood at 82.6 ± 21.8 ng/g and the concentration at 24 h was 3.89 ng/g.
As to `CO[C@H]1CCN(S(=O)(=O)Nc2ccc(F)c(Oc3ccc4ncn([C@H]5COC6(CCN(C7CC8(C7)CN(c7cc9c(cc7F)c(N7CCC(=O)NC7=O)nn9C)C8)CC6)C5)c(=O)c4c3)c2C#N)C1` [Compound 157, (3S)-N-[2-cyano-3-[3-[(3R)-8-[2-[3-(2,4-dioxohexahydropyrimidin-1-yl)-5-fluoro-1-methyl-indazol-6-yl]-2-azaspiro[3.3]heptan-6-yl]-1-oxa-8-azaspiro[4.5]decan-3-yl]-4-oxo-quinazolin-6-yl]oxy-4-fluoro-phenyl]-3-methoxy-pyrrolidine-1-sulfonamide], the concentration at 6 h in data set [2] (setting [6]) turned out to be 2450 ± 217 ng/g; in data set [2] (setting [7]) it was 12500 ± 745 ng/mL.
